Test results: publication PMC10224356, “Trisubstituted 1,3,5-Triazines as Histamine H4 Receptor Antagonists with Promising Activity In Vivo” (Molecules, 2023)
“Also recorded” adds a separate entry of the source.

Columns and labels:
SH-SY5Y cells = assay: Toxicity evaluation, MTS assay in SH-SY5Y cells; assay type: cell-based, human
Excerpt: (§1) Toxic substances can affect the cells. Early in the research process, it is crucial to determine whether obtained compounds can induce such effects. From our series of compounds, compound 6 was selected for toxicity evaluation. MTS assay was used to test toxicity on HepG2 and SH-SY5Y cell lines. HepG2 cells closely reflect the human liver cell model whereas SH-SY5Y neuroblastoma cells are used in models of neurodegenerative diseases (especially Parkinson’s disease) to study the cellular and molecular factors that lead to these disorders.
(§2) Compound 6, at concentrations ranging from 0.78 µM to 50 µM, was incubated with the respective cell lines for 48 h (HepG2) or 24 h (SH-SY5Y). Then, MTS reagent was added and absorbances at 490 nm were read after 1 h. […] The reduction in SH-SY5Y cell viability (Figure 6B) of an average of 4–12% was observed over the range of concentrations.
(§3) The hepatoma cell line HepG2 (ATCC® HB-8065TM) and SH-SY5Y CRL-2266 neuroblastoma cell line were used to evaluate the toxicity of tested compounds. Tests were conducted as described previously. CellTiter 96® Aqueous Non-Radioactive Cell Proliferation Assay was purchased from Promega (Madison, WI, USA). Compounds were tested at 7 concentrations (0.78, 1.56, 3.125, 6.25, 12.5, 25 and 50 µM). Cell viability was determined after incubation with compounds for […]. Each experiment was performed twice in triplicate.

HepG2 cells = assay: Toxicity evaluation, MTS assay in HepG2 cells; assay type: cell-based, human
Excerpt: as §1, §2
as §3, with “Each experiment was performed twice in triplicate.” left out

rats = assay: Carrageenan-induced inflammatory pain and oedema; assay type: in vivo
Excerpt: We wanted to confirm the activity in an additional model of inflammation in another species. To evaluate the influence of compound 6 on acute inflammation, such as oedema and hyperalgesia, we tested it in the carrageenan-induced inflammation model in rats. […] As oedema is one of the most significant symptoms of inflammation resulting from the release of inflammatory mediators, we may conclude that compound 6 has some anti-inflammatory activity. […] The response to mechanical stimuli was observed as the pain withdrawal threshold (Figure 8B) decreased from the value of 138.33 ± 1.05 g (baseline) before carrageenan injection to the value of 120.83 ± 2.0 g (87.3% of the baseline) 3 h after injection, 125.83 ± 2.51 (90.9% of the baseline) 6 h after injection, and 124.17 ± 2.0 (89.7% of the baseline). […] The results obtained confirmed its analgesic activity in mechanical inflammatory hyperalgesia. […] We claim that the effect may result from the inhibition of the release of inflammatory mediators and subsequent inhibition of peripheral and central sensitization. […] The effect was not as persistent as in the mechanical hyperalgesia and was observed only 1, 2 and 3 h after induction of inflammation.
The procedure used was described previously. Briefly, the inflammation and paw oedema was induced by subplantar injection of 0.1 mL of 1% carrageenan (made in PBS) into the right hind paw of the rat. The paw volume was measured by the dislocation of the water column of the plethysmometer (Plethysmometer 7140, Ugo Basile). The hyperalgesic response to mechanical stimuli was measured using Analgesy Meter 37215, Ugo Basile. The intensity of the applied force, in grams, was recorded when the paw was withdrawn (withdrawal threshold). Moreover, the hyperalgesic response to thermal stimuli was determined by using a plantar test apparatus (Commat Ltd., Ankara, Turkey). The latency to the heat stimulus was automatically recorded. Three subsequent applications of the heating stimulus were done, separated by 1- to 2-min intervals, and the mean of these measures was taken.
Figure 8 Effect of compound 6 on carrageenan-induced oedema (A), mechanical hyperalgesia (B) and thermal hyperalgesia (C) developed after subplantar injection of 1% carrageenan in rats. Data are expressed as means ± SEM for 5–6 animals. Time 0—the initial reaction considered as the nociceptive reaction before carrageenan administration. Statistical significance compared to vehicle-treated animals: * p < 0.05, ** p < 0.01, *** p < 0.001, **** p < 0.0001. Statistical analysis: two-way ANOVA post hoc Bonferroni test. Statistical significance compared to initial value (0 time point) in the vehicle-treated group: # p < 0.05, ## p < 0.01, ### p < 0.0001. Statistical analysis: one-way ANOVA followed by Dunnett’s post hoc test.

hH4R = hH4R (Homo sapiens, UniProt Q9H3N8); assay: β-arrestin recruitment assay (LiveBLAzer, Tango-H4-bla U2OS cells); assay type: cell-based; set-up: expressed in transfected cells; host or cells: Tango-H4-bla U2OS cells
Procedure: Compounds were tested using LiveBLAzer^TM assay and Tango-H4-bla U2OS cells, allowing the estimation of the percentage of β-arrestin recruitment in response to tested treatments.
All used media and reagents except DMSO and tested compounds were purchased from ThermoFisher Scientific, Waltham, MA, USA. DMSO was from CarlRoth (Karlsruhe, Germany) and histamine was from Sigma Aldrich (Darmstadt, Germany). […] The day before the experiment cells were collected from the culture flask with trypsin and seeded in 384 well black-wall, clear-bottom plate (PerkinElmer, Waltham, MA, USA) in concentration 10,000 cells/well in FreeStyle medium. After 24 h of incubation, the cells were checked under the microscope and the dilutions of tested compounds were prepared and added to the wells. In agonist mode compounds were added to the wells and plates were placed in the incubator (HERAcell240, Heraeus, Hanau, Germany) for 16 h. In antagonist mode, first, the compounds were added to the wells, plates were incubated for 30 min, then histamine solution (corresponding to EC80—500 nM) was added and plates were put in the incubator for 16 h. After this time β-lactamase substrate mixture was prepared and added to wells (8 µL/well). Cells were incubated for 2 h at room temperature in the dark then the signal was read using an EnSpire microplate reader (PerkinElmer, Waltham, MA, USA). Drawing of dose-dependent curves and IC50 calculation for compounds were made using GraphPad Prism 6 (GraphPad Software, San Diego, CA, USA).

[1] = even at the highest concentration (50 µM)

- IC50 (hH4R; antagonist mode, histamine 500 nM (EC80), Tango-H4-bla U2OS cells, read-out: β-arrestin hH4R IC50 ± SEM): 10 ± 1 nM
- β-arrestin hH4R % of max. Antagonist Activity at 10 µM (hH4R; at 10 µM, antagonist mode): 101%
- Kb (hH4R; calculated from IC50 by Leff–Dougall variant of Cheng–Prusoff equation, read-out: pKb β-arrestin ± SEM (converted)): 1.62 nM
Compound: CN1CCN(c2nc(N)nc(CC3CCCC3)n2)CC1 [Compound 6, 4-(Cyclopentylmethyl)-6-(4-methylpiperazin-1-yl)-1,3,5-triazin-2-amine]
- Reduction in SH-SY5Y cell viability, average over the range of concentrations (SH-SY5Y cells; 0.78–50 µM): 4–12%
- Toxicity in SH-SY5Y cells (MTS) (SH-SY5Y cells; 0.78–50 µM, 24 h incubation): no toxicity up to 50 µM
- Reduction of SH-SY5Y cell viability (SH-SY5Y cells; [1]): ≤ 50%
- Toxicity in HepG2 cells (MTS) (HepG2 cells; 0.78–50 µM, 48 h incubation): no toxicity up to 50 µM; also recorded: did not show significant toxicity in the tested concentration range (except for 6.25 µM concentration)
- Reduction of HepG2 cell viability (HepG2 cells; [1]): ≤ 50%
- Pain withdrawal threshold (mechanical hyperalgesia) (rats; 50 mg/kg, 3 h after carrageenan (vehicle 87.3%)): 122.1 % of the baseline
- Pain withdrawal threshold (mechanical hyperalgesia) (rats; 50 mg/kg, 6 h after carrageenan (vehicle 90.9%)): 119.5 % of the baseline
- Pain withdrawal threshold (mechanical hyperalgesia) (rats; 50 mg/kg, third time point (time not given, presumably 24 h; vehicle 89.7%)): 111.7 % of the baseline
- Paw volume increase (carrageenan oedema) (rats; 75 mg/kg, 1 h after carrageenan (vehicle 48.9%)): 22.1%
- Paw withdrawal latency (thermal hyperalgesia) (rats; 75 mg/kg, 1 h after inflammation induction (vehicle 62.44%)): 129.5 % of baseline
- Paw volume increase (carrageenan oedema) (rats; 75 mg/kg, 2 h after carrageenan (vehicle 79.3%)): 46.3%
- Paw withdrawal latency (thermal hyperalgesia) (rats; 75 mg/kg, 2 h after inflammation induction (vehicle 65.13%)): 103.6 % of baseline
- Pain withdrawal threshold (mechanical hyperalgesia) (rats; 75 mg/kg, 3 h after carrageenan): 107.5 % of the baseline
- Paw volume increase (carrageenan oedema) (rats; 75 mg/kg, 3 h after carrageenan (vehicle 113.0%)): 72.6%
- Paw withdrawal latency (thermal hyperalgesia) (rats; 75 mg/kg, 3 h after inflammation induction (vehicle 45.63%)): 86.3 % of baseline
- Pain withdrawal threshold (mechanical hyperalgesia) (rats; 75 mg/kg, 6 h after carrageenan): 113.2 % of the baseline
- Paw volume increase (carrageenan oedema) (rats; 75 mg/kg, 6 h after carrageenan (vehicle 115.2%)): 76.8%
- Paw volume increase (carrageenan oedema) (rats; 75 mg/kg, 24 h after carrageenan (vehicle 114.1%)): 55.8%
- Pain withdrawal threshold (mechanical hyperalgesia) (rats; 75 mg/kg, third time point (time not given, presumably 24 h)): 113.8 % of the baseline
